# Measured values published in US20220403337A1, “CELL REPROGRAMMING METHOD” (priority 2019, published 2022).
# Columns and labels:
# Assay type in all cases: cell-based
# [1] = test system: Normal human skin fibroblasts (adult); assay: Reprogramming of human skin fibroblasts: change in form, spheroid formation, alkaline phosphatase stain
# Protocol: (§1) Normal human skin fibroblasts (adult) (Takara Bio) were seeded to a spheroid plate, and after 24 to 48 hours, medium exchange was performed on a D-MEM (Low Glucose) medium to which 2-mercaptoethanol diluted by 1/100000 (142 μM) was added. Then, after three to four days, medium exchange was performed again on the same D-MEM medium.
# Then, after three or four days, the medium exchange was performed again on the same medium.
# The alkaline phosphatase reaction of the cells finally obtained by the above-described culture was examined. The stain of alkaline phosphatase was performed in accordance with the operating manual attached to the kit using Alkaline Phosphatase Live Stain (Invitrogen). Specifically, the cells were cultured for 30 minutes in a medium in which a staining fluid (AP Live Stain) attached to the kit diluted by 500 times was added in the D-MEM. Afterwards, the medium was exchanged and cleaning was performed for five minutes x two times.
# (§2) The processes similar to those of the above-described items 1 and 2 were performed to examine the concentration of 2-mercaptoethanol. Specifically, except that the concentration of 2-mercaptoethanol was set to 0.142 μM, 1.42 μM, 14.2 μM, 142 μM, 1.42 mM, 14.2 mM, and 142 mM, the operations same as those in the items 1 and 2 were performed.
# Similarly to the item 1, after performing the culture in the D-MEM medium containing the 2-mercaptoethanol (142 μM), LIF (wako, used by 1:1000), ACTH (wako, 10 μmol/L), bFGF (wako, 0.34 nmol/L), and AR-A014418 (Merck, 3 μM) were added in this medium and further the cells were cultured for one week. As a result, both of spheroid formation of the cells and the alkaline phosphatase stain were observed.
# In the item 1, when (i) only the LIF, (ii) only the ACTH, or (iii) only the LIF and the ACTH were added to the ADSC-4 medium for culture, spheroid formation of the cells and the alkaline phosphatase stain were observed under any conditions.
# [2] = test system: Nanog, Klf4, Oct4, and Sox2; assay: PCR for expression of undifferentiated markers; settings: human skin fibroblasts processed with 2-mercaptoethanol and reprogrammed (FIG. 4 lane 3)
# Protocol: Whether gene expression had been generated was examined on Nanog, Klf4, Oct4, and Sox2 as the undifferentiated markers. The RNA was collected from the cells using a RNeasy Mini Kit (QIAGEN). PCR was performed on the above-described various kinds of undifferentiated markers using the method described in Cell. 2007 Nov 30; 131(5): 861-72.
# [3] = test system: Normal human skin fibroblasts (adult); assay: Extinction of cells at high 2-mercaptoethanol concentration; settings: D-MEM medium
# Protocol: as §1, §2
# [4] = test system: normal human skin fibroblast (adult); assay: Effect by CCL2 added to LIF on reprogramming (cell form)
# Protocol: The CCL2 was added to the LIF and an influence given to reprogramming was verified. In accordance with Working Example 1, while medium exchange was performed on a normal human skin fibroblast (adult) (the Takara Bio) in a D-MEM medium containing 2-mercaptoethanol (142 μM) for three to four days, culture was performed for seven days. Next, culture was performed for additional seven days in a medium in which (i) only LIF, (ii) LIF+CCL2 (10 ng/mL), or (iii) LIF+CCL2 (100 ng/mL) were added to an ADSC-4 medium. Note that the LIF was used by 1:1000.
# [5] = culture only in D-MEM containing 2-mercaptoethanol (142 μM), no step (b)
# [6] = after 2-mercaptoethanol (142 μM) step, only the named factor(s) added to ADSC-4 medium
compound,measurement,setting,value
OCCS [2-mercaptoethanol],change in form of the cells,"[1]; 142 μM in D-MEM (Low Glucose), cultured for one week",the change in form of the cells was confirmed
same,spheroid formation of the cells and alkaline phosphatase stain,"[1]; 142 μM in D-MEM, then LIF, ACTH, bFGF, AR-A014418 added in this same medium, one further week",observed
same,spheroid formation,"[1]; 142 μM one week, then one week in ADSC-4 with LIF 1:1000, ACTH 10 μmol/L, bFGF 0.34 nmol/L, AR-A014418 3 μM",forming spheroids
same,"alkaline phosphatase stain (AP Live Stain, fluorescence microscope)","[1]; 142 μM one week, then one week in ADSC-4 with LIF, ACTH, bFGF, AR-A014418",the stain was observed
same,spheroid formation of the cells and alkaline phosphatase stain,"[1]; 2-mercaptoethanol at 0.142 μM to 1.42 mM in step (a), then ADSC-4 with LIF, ACTH, bFGF, AR-A014418",observed
same,alkaline phosphatase stain,"[1]; 2-mercaptoethanol at 14.2 μM to 1.42 mM in step (a), then ADSC-4 with LIF, ACTH, bFGF, AR-A014418",especially strongly observed
same,alkaline phosphatase stain,[1]; [5],weak
same,spheroid formation of the cells,[1]; [5],observed
same,"expression of undifferentiated markers Nanog, Klf4, Oct4, and Sox2 (PCR bands around targeted sizes)",[2],bands were able to be confirmed
same,2-mercaptoethanol concentration at which extinction of the cells was observed,[3],≥ 14.2 mM
"ACTH: adrenocorticotropic hormone (wako, 10 μmol/L) (SYSMEHFRWGKPVGKKRRPVKVYPNGAEDESAEAFPLEF; Corticotropin; UniProt P01189 138-176, looked up)",spheroid formation of the cells and alkaline phosphatase stain,[1]; [6],observed
"LIF: leukemia inhibiting factor, OCT3/4 transcription stimulating factor (wako, used by 1:1000)",alkaline phosphatase stain (strength),[1]; [6],especially observed strongly
same,spheroid formation of the cells and alkaline phosphatase stain,[1]; [6],observed
same,change in form of the cells,"[4]; (i) only LIF 1:1000 in ADSC-4, seven days, after 2-mercaptoethanol (142 μM) seven days",confirmed
"CCL2: chemokine (C-C motif) ligand 2, OCT3/4 transcription stimulating factor",cell aggregation on addition of CCL2 to LIF,"[4]; contours between cells clarified, divergence of cell adhesion recognized (FIG. 13D)",remarkable
